Test results: ChEMBL document CHEMBL1131896, “Probing the radical mechanism of galactose oxidase using an ultrafast radical probe” (Bioorg Med Chem Lett, 1999)

Tests used:
[1] = test system: Galactose oxidase (Fusarium austroamericanum); test: Inactivation rate constant against Galactose oxidase (GOase)
[2] = target: Galactose oxidase (Fusarium austroamericanum); test: Binding constant against Galactose oxidase (GOase)

| Ki [2] | other results | Structure (SMILES) |
| --- | --- | --- |
| – | K inact [1]: 0.0026 s⁻¹ | OC[C@H]1C[C@@H]1c1ccccc1 [listing 1 of 2 here] |
| – | K inact ([1]; tested as the 2H-labelled form): 0.00082 s⁻¹ | OC[C@H]1C[C@@H]1c1ccccc1 (relative stereo) |
| 5.1 mM | – | [2H]C([2H])(O)[C@H]1C[C@@H]1c1ccccc1 (relative stereo) |
| 5.6 mM | – | OC[C@H]1C[C@@H]1c1ccccc1 [listing 2 of 2 here] |
